Data published in paper doi:10.1101/2025.11.12.688093v2 (biorxiv, 2026).

Experiments:
Assay type in all cases: biochemical
[1] = molecular target: recombinant CK2 (casein kinase 2) (Homo sapiens, UniProt P68400); assay: Kinase-Glo residual ATP luminescence
[2] = molecular target: CDK4/CycD1 (Homo sapiens, UniProt P11802); assay: kinase panel, HTRF or ADP-Glo, single dose; settings: read-out: % inhibition at 1 μM
[3] = molecular target: CDK9/CycT1 (Homo sapiens, UniProt P50750); assay: kinase panel, HTRF or ADP-Glo, single dose; settings: read-out: % inhibition at 10 μM
Sequence of CDK9/CycT1 (P50750 whole entry): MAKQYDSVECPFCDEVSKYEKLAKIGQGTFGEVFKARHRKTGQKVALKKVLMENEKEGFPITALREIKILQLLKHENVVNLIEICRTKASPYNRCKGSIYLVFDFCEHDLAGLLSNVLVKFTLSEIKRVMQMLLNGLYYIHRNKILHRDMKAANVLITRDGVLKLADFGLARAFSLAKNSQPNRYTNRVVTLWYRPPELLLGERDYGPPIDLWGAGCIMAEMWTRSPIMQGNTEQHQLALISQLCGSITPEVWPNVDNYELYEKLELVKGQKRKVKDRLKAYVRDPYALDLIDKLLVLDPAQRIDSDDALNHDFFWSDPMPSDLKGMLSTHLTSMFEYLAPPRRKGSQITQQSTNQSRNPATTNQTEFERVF
Sequence of CDK9/CycT1 (O60563 whole entry partner): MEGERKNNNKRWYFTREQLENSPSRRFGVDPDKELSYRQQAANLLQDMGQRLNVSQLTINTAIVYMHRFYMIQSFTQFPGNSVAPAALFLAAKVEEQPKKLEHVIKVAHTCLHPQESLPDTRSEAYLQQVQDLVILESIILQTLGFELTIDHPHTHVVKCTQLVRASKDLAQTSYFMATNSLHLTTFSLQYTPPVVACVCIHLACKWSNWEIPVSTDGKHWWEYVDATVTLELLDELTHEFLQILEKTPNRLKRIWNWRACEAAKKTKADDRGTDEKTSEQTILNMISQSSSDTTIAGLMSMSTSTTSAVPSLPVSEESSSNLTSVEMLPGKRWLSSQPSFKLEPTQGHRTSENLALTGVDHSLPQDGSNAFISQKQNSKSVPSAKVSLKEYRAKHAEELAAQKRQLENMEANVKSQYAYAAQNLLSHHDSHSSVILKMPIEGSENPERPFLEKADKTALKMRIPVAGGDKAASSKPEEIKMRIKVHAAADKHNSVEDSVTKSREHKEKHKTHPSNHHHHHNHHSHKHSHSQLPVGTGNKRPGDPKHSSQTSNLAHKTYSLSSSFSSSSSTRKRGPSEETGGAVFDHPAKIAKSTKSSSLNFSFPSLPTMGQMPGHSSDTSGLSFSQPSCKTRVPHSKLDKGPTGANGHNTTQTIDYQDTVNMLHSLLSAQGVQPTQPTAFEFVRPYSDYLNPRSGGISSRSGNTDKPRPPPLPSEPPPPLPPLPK

[4] = molecular target: CDK1/CycA2 (Homo sapiens, UniProt P06493); assay: kinase panel, HTRF or ADP-Glo, single dose; settings: read-out: % inhibition at 10 μM
Sequence of CDK1/CycA2 (P20248 whole entry): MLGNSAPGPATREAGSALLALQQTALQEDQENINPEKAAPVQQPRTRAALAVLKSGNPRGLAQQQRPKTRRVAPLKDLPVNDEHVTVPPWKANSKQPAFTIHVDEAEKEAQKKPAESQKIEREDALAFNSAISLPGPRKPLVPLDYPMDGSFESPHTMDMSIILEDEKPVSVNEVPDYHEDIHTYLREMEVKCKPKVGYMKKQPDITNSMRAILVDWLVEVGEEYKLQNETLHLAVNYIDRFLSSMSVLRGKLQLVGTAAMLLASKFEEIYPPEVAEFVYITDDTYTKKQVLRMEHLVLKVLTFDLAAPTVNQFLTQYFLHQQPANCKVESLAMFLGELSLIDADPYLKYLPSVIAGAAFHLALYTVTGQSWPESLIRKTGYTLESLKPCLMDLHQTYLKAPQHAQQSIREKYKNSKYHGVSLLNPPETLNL
Sequence of CDK1/CycA2 (P06493 whole entry): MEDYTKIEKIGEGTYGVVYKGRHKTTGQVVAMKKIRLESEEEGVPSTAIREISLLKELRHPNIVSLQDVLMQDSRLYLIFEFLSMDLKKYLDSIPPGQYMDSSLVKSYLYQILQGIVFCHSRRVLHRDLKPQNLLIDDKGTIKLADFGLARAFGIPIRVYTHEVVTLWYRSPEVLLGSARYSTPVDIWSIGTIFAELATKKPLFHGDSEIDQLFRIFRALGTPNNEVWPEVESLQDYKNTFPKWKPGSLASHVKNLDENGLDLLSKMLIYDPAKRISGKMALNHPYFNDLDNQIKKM

[5] = molecular target: CDK2/CycE1 (Homo sapiens, UniProt P24941); assay: kinase panel, HTRF or ADP-Glo, single dose; settings: read-out: % inhibition at 10 μM
[6] = molecular target: CDK3/CycE1 (Homo sapiens, UniProt Q00526); assay: kinase panel, HTRF or ADP-Glo, single dose; settings: read-out: % inhibition at 10 μM
Sequence of CDK3/CycE1 (Q00526 whole entry): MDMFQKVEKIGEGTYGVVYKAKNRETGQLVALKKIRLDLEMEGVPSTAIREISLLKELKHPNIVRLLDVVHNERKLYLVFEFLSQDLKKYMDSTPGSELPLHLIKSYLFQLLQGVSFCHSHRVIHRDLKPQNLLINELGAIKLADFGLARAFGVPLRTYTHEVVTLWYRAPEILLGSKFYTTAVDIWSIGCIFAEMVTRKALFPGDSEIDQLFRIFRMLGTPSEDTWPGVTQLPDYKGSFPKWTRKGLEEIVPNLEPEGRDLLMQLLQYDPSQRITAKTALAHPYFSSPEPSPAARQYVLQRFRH
Sequence of CDK3/CycE1 (P24864 whole entry, further chain): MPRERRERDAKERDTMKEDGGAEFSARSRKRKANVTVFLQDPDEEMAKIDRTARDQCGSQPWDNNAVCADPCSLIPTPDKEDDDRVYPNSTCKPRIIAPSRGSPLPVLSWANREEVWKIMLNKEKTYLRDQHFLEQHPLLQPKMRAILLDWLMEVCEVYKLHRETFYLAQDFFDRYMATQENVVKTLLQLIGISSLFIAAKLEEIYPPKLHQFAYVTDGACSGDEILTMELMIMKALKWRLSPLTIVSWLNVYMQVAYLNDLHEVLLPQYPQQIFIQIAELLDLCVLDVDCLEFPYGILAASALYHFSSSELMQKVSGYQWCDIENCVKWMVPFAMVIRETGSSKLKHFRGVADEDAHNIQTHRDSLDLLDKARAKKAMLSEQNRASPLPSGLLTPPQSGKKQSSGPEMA

Sequence of recombinant CK2 (casein kinase 2) (P68400 whole entry): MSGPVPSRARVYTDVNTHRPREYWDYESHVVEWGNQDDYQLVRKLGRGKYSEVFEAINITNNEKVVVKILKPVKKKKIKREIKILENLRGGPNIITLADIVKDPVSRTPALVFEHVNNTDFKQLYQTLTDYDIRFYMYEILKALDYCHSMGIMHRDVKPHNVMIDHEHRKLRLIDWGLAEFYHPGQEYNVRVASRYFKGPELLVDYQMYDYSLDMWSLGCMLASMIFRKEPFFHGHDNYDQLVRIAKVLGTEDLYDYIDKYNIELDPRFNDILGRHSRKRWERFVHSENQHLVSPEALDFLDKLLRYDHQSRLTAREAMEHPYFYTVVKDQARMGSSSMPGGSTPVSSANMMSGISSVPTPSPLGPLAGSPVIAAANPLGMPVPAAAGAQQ
Sequence of recombinant CK2 (casein kinase 2) (P67870 2-215 partner): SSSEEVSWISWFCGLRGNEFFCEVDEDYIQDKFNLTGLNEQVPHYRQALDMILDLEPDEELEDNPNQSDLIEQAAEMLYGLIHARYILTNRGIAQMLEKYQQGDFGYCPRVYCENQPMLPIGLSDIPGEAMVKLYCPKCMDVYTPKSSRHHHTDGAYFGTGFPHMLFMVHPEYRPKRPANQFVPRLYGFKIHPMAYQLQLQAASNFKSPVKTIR
Sequence of CDK4/CycD1 (P11802 2-303): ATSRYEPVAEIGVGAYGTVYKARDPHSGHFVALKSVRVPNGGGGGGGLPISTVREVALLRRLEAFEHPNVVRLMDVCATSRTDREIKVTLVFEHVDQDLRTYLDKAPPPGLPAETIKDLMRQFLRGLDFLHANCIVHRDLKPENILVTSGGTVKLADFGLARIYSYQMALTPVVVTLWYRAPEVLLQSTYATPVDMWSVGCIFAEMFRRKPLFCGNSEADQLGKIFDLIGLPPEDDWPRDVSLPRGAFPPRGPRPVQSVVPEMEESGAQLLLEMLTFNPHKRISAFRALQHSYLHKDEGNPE
Sequence of CDK4/CycD1 (P24385 whole entry partner): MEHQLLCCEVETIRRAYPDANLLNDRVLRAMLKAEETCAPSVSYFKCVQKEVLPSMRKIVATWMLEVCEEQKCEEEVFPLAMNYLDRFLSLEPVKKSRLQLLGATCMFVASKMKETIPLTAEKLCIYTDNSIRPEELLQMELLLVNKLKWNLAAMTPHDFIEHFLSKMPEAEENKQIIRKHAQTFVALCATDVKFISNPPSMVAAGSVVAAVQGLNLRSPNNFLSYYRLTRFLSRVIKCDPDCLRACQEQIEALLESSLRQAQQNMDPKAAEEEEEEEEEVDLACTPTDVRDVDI

Row | IC50 [1] [nM] | inhibition at 1 µM [2] [%] | inhibition at 10 µM [3] [%] | inhibition at 10 µM [4] [%] | inhibition at 10 µM [5] [%] | inhibition at 10 µM [6] [%] | SMILES
1 | 156 | 10.2 |  |  |  |  | N=C1NC(=O)/C(=C/c2ccc(O)c([N+](=O)[O-])c2)S1 [compound 2, Compound 2]
2 | 199 |  | 36.1 | 14.7 | 12.4 | 15.3 | Cc1cccc(NCN2C(=O)S/C(=C\c3ccccc3)C2=O)c1 [compound 3, Compound 3]
